Values belong to the molecule of their own block, whether it stands above or below them. Positions of bridges follow the written chain, without caps; N, C: chain ends. Non-standard residues stand in square brackets, D forms with d. 2Nal = N[C@@H](Cc1ccc2ccccc2c1)C(=O)O; AEF = NCCOc1ccc(C[C@H](N)C(=O)O)cc1; αMeL = CC(C)C[C@](C)(N)C(=O)O; Pen = CC(C)(S)[C@H](N)C(=O)O; Thp = NC1(C(=O)O)CCOCC1; Abu = CC[C@H](N)C(=O)O
Columns and labels:
[1] = system: IL-23R-expressing DB cells stimulated with IL-23 (pSTAT3 levels); experiment: DB cells IL23R pSTAT3 cell assay (Cisbio HTRF pSTAT3); type: cell-based, human; conditions: IL-23 0.5 nM, 30 minutes at 37° C.
Text: Human ELISA indicates the IL23-IL23R competitive binding assay described below, Rat ELISA indicates the rat IL-23R competitive binding ELISA assay described below, and pStat3HTRF indicates the DB cells IL-23R pSTAT3 cell assay described below. The peptides depicted in Table E1 are cyclized via a disulfide bridge formed between two Pen residues in these peptides. The peptides depicted in Table E2 are cyclized via a thioether bond between the indicated amino acid residues. Table E2 provides an illustrative structure depicting thioether cyclization, which is indicated in the table by the term “cyclo,” with the cyclic region bracketed immediately following the term “cyclo.” For certain peptides, the residue Abu is present where indicated, whereas in other embodiments, e.g., those related to the non-cyclized form, the Abu may be referred to as a hSer(Cl) or homoSer residue.
DB Cells IL23R pSTAT3 Cell Assay
IL-23 plays a central role in supporting and maintaining Th17 differentiation in vivo. […] This cell assay examines the levels of pSTAT3 in IL-23R-expressing DB cells when stimulated with IL-23 in the presence of test compounds.

[2] = biological target: T1, interleukin-23 receptor (IL-23R) (human, UniProt Q5VWK5 24-629); experiment: cell-based or functional assay
T1 sequence (looked up): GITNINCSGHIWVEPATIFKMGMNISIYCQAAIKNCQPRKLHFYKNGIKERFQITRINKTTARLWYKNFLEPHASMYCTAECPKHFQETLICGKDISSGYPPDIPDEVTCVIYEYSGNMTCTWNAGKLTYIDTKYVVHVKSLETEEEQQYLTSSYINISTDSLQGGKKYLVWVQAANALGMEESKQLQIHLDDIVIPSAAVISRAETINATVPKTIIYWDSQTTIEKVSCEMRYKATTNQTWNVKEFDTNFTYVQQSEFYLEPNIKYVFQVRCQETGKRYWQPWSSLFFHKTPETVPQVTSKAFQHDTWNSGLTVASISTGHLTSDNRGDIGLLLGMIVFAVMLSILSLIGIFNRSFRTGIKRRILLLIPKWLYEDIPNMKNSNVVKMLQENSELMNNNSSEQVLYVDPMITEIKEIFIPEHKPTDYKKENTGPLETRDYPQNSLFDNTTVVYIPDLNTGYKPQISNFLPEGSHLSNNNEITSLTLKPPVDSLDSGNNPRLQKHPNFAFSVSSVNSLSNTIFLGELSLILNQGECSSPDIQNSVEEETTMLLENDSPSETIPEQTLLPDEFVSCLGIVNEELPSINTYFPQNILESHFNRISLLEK

[3] = Table L3 (E3), additional peptide inhibitors

Molecule: 84 (XXQTWQCXXXEND; MOD_RES (1)..(1) D-form arginine; MOD_RES (2)..(2) Abu; (2)..(7) residues cyclosized; MOD_RES (8)..(8) 4-(2-aminoethoxy)-L-phenylalanine; MOD_RES (9)..(9) L-2-Napthylalanine; MOD_RES (10)..(10) 4-amino-4-carboxy-tetrahydropyran) [compound 84]
IC50 ([1]; Table E2, thioether peptides): 10 to 100 nM

Molecule: 85 (XXQTWQCXXXEDN; MOD_RES (1)..(1) D-form arginine; MOD_RES (2)..(2) Abu; (2)..(7) residues cyclosized; MOD_RES (8)..(8) 4-(2-aminoethoxy)-L-phenylalanine; MOD_RES (9)..(9) L-2-Napthylalanine; MOD_RES (10)..(10) 4-amino-4-carboxy-tetrahydropyran) [compound 85]
IC50 ([1]; Table E2, thioether peptides): 10 to 100 nM

Molecule: 179 (Ac-K(Ac)[Pen]NTWQ[Pen][AEF][2Nal][αMeL]K(Ac)NN-NH2; disulfide 2-7 (inferred)) [compound 179]
IC50 [1, 3]: 1 to 10 nM

Molecule: 180 (Ac-K(Ac)[Pen]NTWQ[Pen][4‑Carbamoyl‑L‑phenylalanine][2Nal][αMeL]K(Ac)NN-NH2; disulfide 2-7 (inferred)) [compound 180]
IC50 [1, 3]: 1 to 10 nM

Molecule: 182 (Ac-[Pen]NTWQ[Pen][4‑Carbamoyl‑L‑phenylalanine][2Nal][αMeL]K(Ac)NNK(Ac)-NH2; disulfide 1-6 (inferred)) [compound 182]
IC50 [1, 3]: 1 to 10 nM

B1: SEQ ID NO 105 (peptide)
peptide: XXQTXQCXXXENN
modifications: Ac-[(D)Arg]-cyclo[[Abu]-QT-[Trp(5-F)]-QC]-[Phe[4-(2-aminoethoxy)]-[2-Nal]-[α-MeLeu]-ENN-NH2
IC50, pStat3 HTRF (nM) [2]: < 1 nM

B2: SEQ ID NO 106 (peptide)
peptide: XQTXQCXXXENN
modifications: Ac-cyclo[[Abu]-QT-[Trp(5-F)]-QC]-[Phe[4-(2-aminoethoxy)]-[2-Nal]-[α-MeLeu]-ENN-NH2
IC50, pStat3 HTRF (nM) [2]: < 1 nM

B3: SEQ ID NO 97 (peptide)
peptide: XXQTWXCXXXENN
modifications: Ac-[(D)Arg]-cyclo[[Abu]-QTW-[β-homoGln]-C]-[Phe[4-(2-aminoethoxy)]-[2-Nal]-[4-amino-4-carboxy-tetrahydropyran]-ENN-NH2
IC50, pStat3 HTRF (nM) [2]: > 100 nM

B4: SEQ ID NO 107 (peptide)
peptide: XXQTWQCXXXENN
modifications: Ac-[(D)Arg]-cyclo[[Abu]-QTWQC]-[Phe[4-(2-aminoethoxy)]-[2-Nal]-[α-MeLeu]-ENN-NH2
IC50, pStat3 HTRF (nM) [2]: < 1 nM

B5: SEQ ID NO 71 (peptide)
peptide: XXQTWQCXXXENN
modifications: Alexa488-[PEG4]-[(D)Arg]-cyclo[[Abu]-QTWQC]-[Phe[4-(2-aminoethoxy)]-[2-Nal]-[4-amino-4-carboxy-tetrahydropyran]-ENN-NH2
IC50, pStat3 HTRF (nM) [2]: < 1 nM

Results, then the molecule that gave them:

IC50 ([1]; Table E2, thioether peptides): 1 to 10 nM
Molecule: 82 (Ac-[dR][Abu]ETWEC[AEF][2Nal][Thp]ENN-NH2; thioether 2-7) [compound 82]

IC50 ([1]; Table E2, thioether peptides): 1 to 10 nM
Molecule: 86 (XXQTWECXXXENN; MOD_RES (1)..(1) D-form arginine; MOD_RES (2)..(2) Abu; (2)..(7) residues cyclosized; MOD_RES (8)..(8) 4-(2-aminoethoxy)-L-phenylalanine; MOD_RES (9)..(9) L-2-Napthylalanine; MOD_RES (10)..(10) 4-amino-4-carboxy-tetrahydropyran) [compound 86]

IC50 ([1]; Table E2, thioether peptides): 10 to 100 nM
Molecule: 99 (XXQTWFCXXXENN; MOD_RES (1)..(1) D-form arginine; MOD_RES (2)..(2) Abu; (2)..(7) residues cyclosized; MOD_RES (8)..(8) 4-(2-aminoethoxy)-L-phenylalanine; MOD_RES (9)..(9) L-2-Napthylalanine; MOD_RES (10)..(10) 4-amino-4-carboxy-tetrahydropyran) [compound 99]

IC50 ([1]; Table E2, thioether peptides): 1 to 10 nM
Molecule: 100 (XXQTWWCXXXENN; MOD_RES (1)..(1) D-form arginine; MOD_RES (2)..(2) Abu; (2)..(7) residues cyclosized; MOD_RES (8)..(8) 4-(2-aminoethoxy)-L-phenylalanine; MOD_RES (9)..(9) L-2-Napthylalanine; MOD_RES (10)..(10) 4-amino-4-carboxy-tetrahydropyran) [compound 100]

IC50 ([1]; Table E2, thioether peptides): 10 to 100 nM
Molecule: 102 (XXQTWTCXXXENN; MOD_RES (1)..(1) D-form arginine; MOD_RES (2)..(2) Abu; (2)..(7) residues cyclosized; MOD_RES (8)..(8) 4-(2-aminoethoxy)-L-phenylalanine; MOD_RES (9)..(9) L-2-Napthylalanine; MOD_RES (10)..(10) 4-amino-4-carboxy-tetrahydropyran) [compound 102]

IC50 ([1]; Table E2, thioether peptides): 10 to 100 nM
Molecule: 103 (XXQTWVCXXXENN; MOD_RES (1)..(1) D-form arginine; MOD_RES (2)..(2) Abu; (2)..(7) residues cyclosized; MOD_RES (8)..(8) 4-(2-aminoethoxy)-L-phenylalanine; MOD_RES (9)..(9) L-2-Napthylalanine; MOD_RES (10)..(10) 4-amino-4-carboxy-tetrahydropyran) [compound 103]

IC50 [1, 3]: 1 to 10 nM
Molecule: 154 (XXQTWKCXXXENN; MOD_RES (1)..(1) D-form arginine; MOD_RES (2)..(2) Abu; (2)..(7) residues cyclosized; MOD_RES (6)..(6) PEG12 conjugation; MOD_RES (8)..(8) 4-(2-aminoethoxy)-L-phenylalanine; MOD_RES (9)..(9) L-2-Napthylalanine; MOD_RES (10)..(10) 4-amino-4-carboxy-tetrahydropyran) [compound 154]

IC50 [1, 3]: 1 to 10 nM
Molecule: 156 (XXQTWQCXXXKNN; MOD_RES (1)..(1) D-form arginine; MOD_RES (2)..(2) Abu; (2)..(7) residues cyclosized; MOD_RES (8)..(8) 4-(2-aminoethoxy)-L-phenylalanine; MOD_RES (9)..(9) L-2-Napthylalanine; MOD_RES (10)..(10) 4-amino-4-carboxy-tetrahydropyran; MOD_RES (11)..(11) PEG12 conjugation) [compound 156]

IC50 [1, 3]: 1 to 10 nM
Molecule: 158 (XNTWQXXXXKNND; MOD_RES (1)..(1) L-Penicillamine; MOD_RES (6)..(6) L-Penicillamine; MOD_RES (7)..(7) 4-(2-aminoethoxy)-L-phenylalanine; MOD_RES (8)..(8) L-2-Napthylalanine; MOD_RES (9)..(9) alpha-methyl-L-Leucine; MOD_RES (10)..(10) …ON) [compound 158]

IC50 [1, 3]: 1 to 10 nM
Molecule: 160 (XNTWQXXXXKNNW; MOD_RES (1)..(1) L-Penicillamine; MOD_RES (6)..(6) L-Penicillamine; MOD_RES (7)..(7) 4-(2-aminoethoxy)-L-phenylalanine; MOD_RES (8)..(8) L-2-Napthylalanine; MOD_RES (9)..(9) alpha-methyl-L-Leucine; MOD_RES (10)..(10) …ON) [compound 160]

IC50 [1, 3]: 1 to 10 nM
Molecule: 162 (XNTWQXXXXKNNL; MOD_RES (1)..(1) L-Penicillamine; MOD_RES (6)..(6) L-Penicillamine; MOD_RES (7)..(7) 4-(2-aminoethoxy)-L-phenylalanine; MOD_RES (8)..(8) L-2-Napthylalanine; MOD_RES (9)..(9) alpha-methyl-L-Leucine; MOD_RES (10)..(10) …ON) [compound 162]

IC50 [1, 3]: 1 to 10 nM
Molecule: 163 (XNTWQXXXXKNNG; MOD_RES (1)..(1) L-Penicillamine; MOD_RES (6)..(6) L-Penicillamine; MOD_RES (7)..(7) 4-(2-aminoethoxy)-L-phenylalanine; MOD_RES (8)..(8) L-2-Napthylalanine; MOD_RES (9)..(9) alpha-methyl-L-Leucine; MOD_RES (10)..(10) …ON) [compound 163]

IC50 [1, 3]: 1 to 10 nM
Molecule: 181 (XNTWQXXXXKNNK; MOD_RES (1)..(1) L-Penicillamine; MOD_RES (6)..(6) L-Penicillamine; MOD_RES (7)..(7) 4-(2-aminoethoxy)-L-phenylalanine; MOD_RES (8)..(8) L-2-Napthylalanine; MOD_RES (9)..(9) alpha-methyl-L-Leucine; MOD_RES (10)..(10) …ON; MOD_RES (13)..(13) …ON) [compound 181]
